Source: PMC6566410, “Novel Diamide-Based Benzenesulfonamides as Selective Carbonic Anhydrase IX Inhibitors Endowed with Antitumor Activity: Synthesis, Biological Evaluation and In Silico Insights” (International Journal of Molecular Sciences, 2019)
pKi: −log10 of the molar value.

Key:
[1] = test system: panel of sixty cancer cell lines; assay: NCI one-dose SRB assay, whole panel; assay type: cell-based; conditions: Homo sapiens, mean over the panel, 1.00E-5 Molar, read-out: Mean Growth Percent
Protocol: (§1) First, all diamide-based benzenesulfonamides herein reported 5a–h were screened for their antitumor activity at one dose (10^−5 M) assay against a panel of sixty cancer cell lines through the National Cancer Institute (NCI) Developmental Therapeutic Program (www.dtp.nci.nih.gov), according to US-NCI protocol. The cell growth and cell viability were evaluated using the sulforhodamine B (SRB) colorimetric assay.
(§2) This assay was carried out according to the protocol of the Drug Evaluation Branch, NCI, Bethesda. The cell growth and cell viability were evaluated using the sulforhodamine B (SRB) colorimetric assay, as reported earlier.

SR = assay: NCI one-dose SRB assay; assay type: cell-based, human; conditions: SR (Leukemia), 1.00E-5 Molar
Protocol: as §1, §2

hCA I = hCA I (Homo sapiens, UniProt P00915); assay: stopped-flow CO2 hydrase assay
From the text: (§4) An Applied Photophysics stopped-flow instrument was used for assaying the CA catalysed CO2 hydration activity, as reported earlier [17]. The inhibition constants were obtained by non-linear least-squares methods using PRISM 3 and the Cheng-Prusoff equation as reported earlier, and represent the mean from at least three different determinations. The four tested CA isofoms were recombinant ones obtained in-house as reported earlier [26, 27, 28, 29].

hCA II = hCA II (Homo sapiens, UniProt P00918); assay: stopped-flow CO2 hydrase assay
From the text: as §4

HT29 = assay: NCI one-dose SRB assay; assay type: cell-based; conditions: Homo sapiens, HT-29, HT29 (Colon Cancer), 1.00E-5 Molar, read-out: Growth Percent
Summary of the method: (§3)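 Read-out: sulforhodamine B colorimetric measurement of cell growth and viability. Each compound was applied once at 10^−5 M across sixty cancer cell lines under the NCI Drug Evaluation Branch protocol.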

KM12 = assay: NCI one-dose SRB assay; assay type: cell-based; conditions: Homo sapiens, KM12 (Colon Cancer), 1.00E-5 Molar, read-out: Growth Percent
Summary of the method: as §3

HCT-15 = assay: NCI one-dose SRB assay; assay type: cell-based; conditions: Homo sapiens, HCT-15 (Colon Cancer), 1.00E-5 Molar, read-out: Growth Percent
Summary of the method: as §3

RPMI-8226 = assay: NCI one-dose SRB assay; assay type: cell-based; conditions: Homo sapiens, RPMI-8226 (Leukemia), 1.00E-5 Molar, read-out: Growth Percent
Summary of the method: as §3

UACC-257 = assay: NCI one-dose SRB assay; assay type: cell-based; conditions: Homo sapiens, UACC-257 (Melanoma), 1.00E-5 Molar, read-out: Growth Percent
Summary of the method: as §3

HS 578T = assay: NCI one-dose SRB assay; assay type: cell-based; conditions: Homo sapiens, HS 578T (Breast Cancer), 1.00E-5 Molar, read-out: Growth Percent
Summary of the method: as §3

NCI-H460 = assay: NCI one-dose SRB assay; assay type: cell-based; conditions: Homo sapiens, NCI-H460 (Non-Small Cell Lung Cancer), 1.00E-5 Molar, read-out: Growth Percent
Summary of the method: as §3

NCI-H226 = assay: NCI one-dose SRB assay; assay type: cell-based; conditions: Homo sapiens, NCI-H226 (Non-Small Cell Lung Cancer), 1.00E-5 Molar, read-out: Growth Percent
Summary of the method: as §3

SNB-75 = assay: NCI one-dose SRB assay; assay type: cell-based; conditions: Homo sapiens, SNB-75 (CNS Cancer), 1.00E-5 Molar, read-out: Growth Percent
Summary of the method: as §3

PC-3 = assay: NCI one-dose SRB assay; assay type: cell-based; conditions: Homo sapiens, PC-3 (Prostate Cancer), 1.00E-5 Molar, read-out: Growth Percent
Summary of the method: as §3

IGROV1 = assay: NCI one-dose SRB assay; assay type: cell-based; conditions: Homo sapiens, IGROV-1, IGROV1 (Ovarian Cancer), 1.00E-5 Molar, read-out: Growth Percent
Summary of the method: as §3

ACHN = assay: NCI one-dose SRB assay; assay type: cell-based; conditions: Homo sapiens, ACHN (Renal Cancer), 1.00E-5 Molar, read-out: Growth Percent
Summary of the method: as §3

OVCAR-8 = assay: NCI one-dose SRB assay; assay type: cell-based; conditions: Homo sapiens, OVCAR-8 (Ovarian Cancer), 1.00E-5 Molar, read-out: Growth Percent
Summary of the method: as §3

TK-10 = assay: NCI one-dose SRB assay; assay type: cell-based; conditions: Homo sapiens, TK-10 (Renal Cancer), 1.00E-5 Molar, read-out: Growth Percent
Summary of the method: as §3

HL-60(TB) = assay: NCI one-dose SRB assay; assay type: cell-based; conditions: Homo sapiens, HL-60(TB) (Leukemia), 1.00E-5 Molar, read-out: Growth Percent
Summary of the method: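 NCI-60 one-dose protocol: compound at 10^−5 M; growth and viability quantified with SRB dye.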

MDA-MB-468 = assay: NCI one-dose SRB assay; assay type: cell-based; conditions: Homo sapiens, MDA-MB-468 (Breast Cancer), 1.00E-5 Molar, read-out: Growth Percent
Summary of the method: as §3

MCF7 = assay: NCI one-dose SRB assay; assay type: cell-based; conditions: Homo sapiens, MCF7 (Breast Cancer), 1.00E-5 Molar, read-out: Growth Percent
Summary of the method: as §3

SK-OV-3 = assay: NCI one-dose SRB assay; assay type: cell-based; conditions: Homo sapiens, SK-OV-3 (Ovarian Cancer), 1.00E-5 Molar, read-out: Growth Percent
Summary of the method: as §3

U251 = assay: NCI one-dose SRB assay; assay type: cell-based; conditions: Homo sapiens, U-251, U251 (CNS Cancer), 1.00E-5 Molar, read-out: Growth Percent
Summary of the method: as §3

HOP-92 = assay: NCI one-dose SRB assay; assay type: cell-based; conditions: Homo sapiens, HOP-92 (Non-Small Cell Lung Cancer), 1.00E-5 Molar, read-out: Growth Percent
Summary of the method: as §3

CAKI-1 = assay: NCI one-dose SRB assay; assay type: cell-based; conditions: Homo sapiens, CAKI-1 (Renal Cancer), 1.00E-5 Molar, read-out: Growth Percent
Summary of the method: as §3

OVCAR-3 = assay: NCI one-dose SRB assay; assay type: cell-based; conditions: Homo sapiens, OVCAR-3 (Ovarian Cancer), 1.00E-5 Molar, read-out: Growth Percent
Summary of the method: as §3

MOLT-4 = assay: NCI one-dose SRB assay; assay type: cell-based; conditions: Homo sapiens, MOLT-4 (Leukemia), 1.00E-5 Molar, read-out: Growth Percent
Summary of the method: as §3

UACC-62 = assay: NCI one-dose SRB assay; assay type: cell-based; conditions: Homo sapiens, UACC-62 (Melanoma), 1.00E-5 Molar, read-out: Growth Percent
Summary of the method: as §3

MALME-3M = assay: NCI one-dose SRB assay; assay type: cell-based; conditions: Homo sapiens, MALME-3M (Melanoma), 1.00E-5 Molar, read-out: Growth Percent
Summary of the method: as §3

COLO 205 = assay: NCI one-dose SRB assay; assay type: cell-based; conditions: Homo sapiens, COLO 205 (Colon Cancer), 1.00E-5 Molar, read-out: Growth Percent
Summary of the method: as §3

Chain of hCA I (P00915 whole entry): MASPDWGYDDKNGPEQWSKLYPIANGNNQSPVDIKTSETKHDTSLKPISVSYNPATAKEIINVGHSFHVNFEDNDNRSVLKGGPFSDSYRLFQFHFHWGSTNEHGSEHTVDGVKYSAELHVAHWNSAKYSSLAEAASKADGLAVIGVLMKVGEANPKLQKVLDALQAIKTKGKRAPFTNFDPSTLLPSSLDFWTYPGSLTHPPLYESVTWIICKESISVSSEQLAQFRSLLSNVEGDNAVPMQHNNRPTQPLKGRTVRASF

SMILES	activity at 10 µM [1] [%]	pKi (hCA I)	pKi (hCA II)	activity at 10 µM (HT29) [%]	activity at 10 µM (KM12) [%]	activity at 10 µM (HCT-15) [%]	activity at 10 µM (RPMI-8226) [%]	activity at 10 µM (UACC-257) [%]	activity at 10 µM (HS 578T) [%]	activity at 10 µM (NCI-H460) [%]	activity at 10 µM (NCI-H226) [%]	activity at 10 µM (SNB-75) [%]	activity at 10 µM (PC-3) [%]	activity at 10 µM (IGROV1) [%]	activity at 10 µM (ACHN) [%]	activity at 10 µM (OVCAR-8) [%]	activity at 10 µM (TK-10) [%]	activity at 10 µM (HL-60(TB)) [%]	activity at 10 µM (MDA-MB-468) [%]	activity at 10 µM (MCF7) [%]	also measured
NS(=O)(=O)c1ccc(NC(=O)C(=Cc2ccc(Br)cc2)NC(=O)c2ccccc2)cc1 [Compound 5c, N-(1-(4-Bromophenyl)-3-oxo-3-((4-sulfamoylphenyl)amino)prop-1-en-2-yl)benzamide]	97.3	5.62	6.60	89.1	102	92.5	97.2	105	93.9	107	97.2	86.5	92.7	90.2	100	102	102	96.9	99.9	98.1	melting point: 210 to 212 °C; Growth Percent (SR): 88.11%; activity at 10 µM (SK-OV-3): 101%; activity at 10 µM (U251): 93.1%; activity at 10 µM (HOP-92): 94%; activity at 10 µM (CAKI-1): 91%; activity at 10 µM (OVCAR-3): 103%; activity at 10 µM (MOLT-4): 89.5%; activity at 10 µM (UACC-62): 88.1%; activity at 10 µM (MALME-3M): 92.2%; activity at 10 µM (COLO 205): 105%
Cc1ccc(C=C(NC(=O)c2ccccc2)C(=O)Nc2ccc(S(N)(=O)=O)cc2)o1 [Compound 5h, N-(1-(5-Methylfuran-2-yl)-3-oxo-3-((4-sulfamoylphenyl)amino)prop-1-en-2-yl)benzamide]	94.6	5.09	6.94	86.3	98.4	92.9	84.7	99.4	76.5	101	102	81.5	90.9	81	90.9	95.5	112	94.6	98.7	97.1	melting point: 240 to 243 °C; activity at 10 µM (SK-OV-3): 96.5%; activity at 10 µM (U251): 88.9%; activity at 10 µM (HOP-92): 70.1%; activity at 10 µM (CAKI-1): 84.4%; activity at 10 µM (OVCAR-3): 108%; activity at 10 µM (MOLT-4): 88.9%; activity at 10 µM (UACC-62): 95%; activity at 10 µM (MALME-3M): 93.2%; activity at 10 µM (COLO 205): 108%
COc1ccc(C=C(NC(=O)c2ccccc2)C(=O)Nc2ccc(S(N)(=O)=O)cc2)cc1 [Compound 5e, N-(1-(4-Methoxyphenyl)-3-oxo-3-((4-sulfamoylphenyl)amino)prop-1-en-2-yl)benzamide]	103	6.00	6.89	100	106	104	107	102	102	105	105	95.5	98.9	94.5	102	99.4	107	99.2	108	98.5	Growth Percent (SR): 88.45%; activity at 10 µM (SK-OV-3): 97.1%; activity at 10 µM (U251): 99.4%; activity at 10 µM (HOP-92): 109%; activity at 10 µM (CAKI-1): 98.1%; activity at 10 µM (OVCAR-3): 111%; activity at 10 µM (MOLT-4): 104%; activity at 10 µM (UACC-62): 92.7%; activity at 10 µM (MALME-3M): 109%; activity at 10 µM (COLO 205): 110%
